Laboratory results as given in ChEMBL document CHEMBL3616453, “Recent progress in the development of small-molecule glucagon receptor antagonists” (Bioorg Med Chem Lett, 2015).

What was measured:
[1] = molecular target: T1, Glucagon receptor (Homo sapiens, UniProt P47871); test: Displacement of [125I]-glucagon from human glucagon receptor expressed in HEK293 cell membranes at 10 uM after 2 hrs by microplate scintillation counting analysis relative to control
[2] = molecular target: T1, Glucagon receptor; test: Antagonist activity at human glucagon receptor expressed in CHOK1 cells assessed as inhibition of glucagon-stimulated intracellular cAMP formation preincubated for 20 mins followed by glucagon stimulation measured after 30 mins by fluorescent plate reader analysis; type: functional, cell-based; conditions: CHO-K1
[3] = molecular target: T1, Glucagon receptor; test: Displacement of [125I]-glucagon from human glucagon receptor expressed in Chem-1 cell membranes after 6 to 10 hrs by scintillation proximity assay
[4] = molecular target: T1, Glucagon receptor; test: Antagonist activity at recombinant human glucagon receptor expressed in CHO cells assessed as inhibition of glucagon-stimulated intracellular cAMP formation preincubated for 30 mins followed by glucagon stimulation measured after 45 mins by LANCE assay; type: functional, cell-based
[5] = molecular target: T1, Glucagon receptor; test: Antagonist activity at human glucagon receptor expressed in HEK293 cell membranes assessed as inhibition of glucagon-stimulated intracellular cAMP formation preincubated for 30 mins followed by glucagon stimulation measured after 5 mins by TR-FRET analysis; type: functional, cell-based
[6] = molecular target: T1, Glucagon receptor; test: Displacement of [125I]-glucagon from full length human glucagon receptor expressed in HEK293 cell membranes after 2 hrs by scintillation counting analysis
[7] = species: Homo sapiens; test: Antidiabetic activity in type-2 diabetic human model assessed as decrease in 24 hrs weighted mean glucose level at 10 mg, qd measured during day time; type: functional
[8] = species: Homo sapiens; test: Antidiabetic activity in type-2 diabetic human model assessed as decrease in fasting plasma glucose level at 25 mg, bid; type: functional
[9] = test system: Homo sapiens; test: In vivo inhibition of gucagon receptor in type-2 diabetic human model at 10 mg, qd measured during day time relative to control; type: functional
[10] = test system: Homo sapiens; test: In vivo inhibition of gucagon receptor in type-2 diabetic human model at 6 mg, qd measured during night time relative to control; type: functional
[11] = test system: Homo sapiens; test: In vivo inhibition of gucagon receptor in type-2 diabetic human model at 25 mg, bid measured over 24 hrs relative to control; type: functional
[12] = species: Homo sapiens; test: Toxicity in type-2 diabetic human model assessed as increase in LDL-C level at 25 mg, bid relative to control; type: organism-based; conditions: in vivo
[13] = species: Homo sapiens; test: Antidiabetic activity in type-2 diabetic human model assessed as decrease in fasting plasma glucose level at 6 mg, qd measured during night time; type: functional
[14] = Half life in human; type: ADME, organism-based; conditions: in vivo
[15] = species: Homo sapiens; test: Antidiabetic activity in type-2 diabetic human model assessed as decrease in fasting plasma glucose level at 10 mg, qd measured during day time; type: functional
[16] = species: Homo sapiens; test: Hypoglycemic activity in human assessed as time required to glucose recovery from 50 mg/dl to >= 70 mg/dl at 200 mg (reference value: 33.3 min); type: functional
[17] = species: Homo sapiens; test: Hypoglycemic activity in human assessed as time required to glucose recovery from 50 mg/dl to >= 70 mg/dl at 1 g (reference value: 33.3 min); type: functional
[18] = test system: Homo sapiens; test: Antidiabetic activity in type-2 diabetic human model assessed as reduction in HbA1c level at 80 mg, qd administered for 12 weeks measured after post last dose relative to control; type: functional; set-up: scale not given: the % may be the effect or the level left
[19] = species: Homo sapiens; test: Hypoglycemic activity in type-2 diabetic human assessed as time required to glucose recovery from 50 mg/dl to >= 63 mg/dl at 1 g in presence of beta blocker propranolol (reference value: 71 min); type: functional
[20] = test system: Homo sapiens; test: Antidiabetic activity in type-2 diabetic human model assessed as reduction in HbA1c level at 40 mg, qd administered for 12 weeks measured after post last dose relative to control; type: functional; set-up: scale not given: the % may be the effect or the level left
[21] = test system: Homo sapiens; test: Antidiabetic activity in type-2 diabetic human model assessed as reduction in HbA1c level at 20 mg, qd administered for 12 weeks measured after post last dose relative to control; type: functional; set-up: scale not given: the % may be the effect or the level left
[22] = test system: Homo sapiens; test: Antidiabetic activity in type-2 diabetic human model assessed as reduction in HbA1c level at 60 mg, qd administered for 12 weeks measured after post last dose relative to control; type: functional; set-up: scale not given: the % may be the effect or the level left

T1 sequence (P47871 whole entry): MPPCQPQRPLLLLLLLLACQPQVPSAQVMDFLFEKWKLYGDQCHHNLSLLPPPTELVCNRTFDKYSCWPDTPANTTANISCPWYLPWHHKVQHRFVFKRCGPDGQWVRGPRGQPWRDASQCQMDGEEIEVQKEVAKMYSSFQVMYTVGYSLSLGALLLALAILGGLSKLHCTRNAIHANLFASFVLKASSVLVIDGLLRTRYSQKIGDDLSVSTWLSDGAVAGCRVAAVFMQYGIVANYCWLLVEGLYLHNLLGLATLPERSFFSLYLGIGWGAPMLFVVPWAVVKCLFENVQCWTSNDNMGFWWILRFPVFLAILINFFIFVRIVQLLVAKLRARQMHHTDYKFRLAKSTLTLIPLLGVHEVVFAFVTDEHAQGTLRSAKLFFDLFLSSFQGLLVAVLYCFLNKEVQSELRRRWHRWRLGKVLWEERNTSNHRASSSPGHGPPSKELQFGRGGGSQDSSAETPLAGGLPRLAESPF

For `Cc1cc(-c2ncc(C(F)(F)F)cn2)ccc1C(CCC(F)(F)F)Nc1ccc(C(=O)N2CCC[C@@H](C(=O)O)C2)cc1` (stereo partly specified), the inhibition [1] was 91%.
`CCC[C@H](Nc1ccc(-n2cc(-c3ccccc3)cn2)cc1)c1ccc(C(=O)NCCC(=O)O)cc1` gave a Kb [2] of 9.5 nM and a Ki [3] of 26 nM.
For `CC1(C)CC(C(Nc2cnc(-n3cc(C(F)(F)F)cn3)nc2)c2ccc(C(=O)NCCC(=O)O)cc2)C1` (racemic), the Kb [2] was 19 nM.
For `CC(C)(C)CCOc1cccc(C2=NC3(CCC(C(C)(C)C)CC3)N([C@H](CCC(C)(C)C)c3ccc(C(=O)NCc4nn[nH]n4)cc3)C2=O)c1` (stereo partly specified), the IC50 [4] was 61 nM.
`Cc1cc(C(F)(F)F)ccc1-c1ccc(NCc2ccc(C(F)(F)F)cc2-c2ccc(C(=O)NCCC(=O)O)nc2)cc1Cl` gave an IC50 [5] of 22 nM and a Ki [6] of 17 nM.
`Cc1cc2cc(F)ccc2nc1NC(c1ccc(C(=O)NCCC(=O)O)cc1)C1CC(C)(C)C1` (stereo unspecified) showed a Kb [2] of 33 nM.
Compound `Cc1cc2ccccc2nc1NC(c1ccc(C(=O)NCCC(=O)O)cc1)C1CC(C)(C)C1` (stereo unspecified) has a Kb [2] of 23 nM.
With `CC(C)(C)CC[C@H](c1ccc(C(=O)NCCC(=O)O)cc1)N1C(=O)C(c2cccc(F)c2)=NC12CCC([Si](C)(C)C)CC2` (stereo partly specified) the IC50 [4] was 22 nM.
For `Cc1cc(-n2cc3c(n2)CCCC3)ccc1C(CCC(F)(F)F)Nc1ccc(C(=O)N2CCC[C@@H](C(=O)O)C2)cn1` (stereo partly specified), the inhibition [1] was 90%.
`Cc1cc(C(F)(F)F)ccc1-c1ccc(NCc2cc(C(C)C)cc(C(F)(F)F)c2-c2ccc(C(=O)NCCC(=O)O)cc2)cc1Cl` showed a Ki [6] of 30 nM.
In the case of `Cc1cc(Cl)ccc1-c1ccc(NCc2cc(Cl)cc(C(F)(F)F)c2-c2ccc(C(=O)NCCC(=O)O)nc2)cc1`, the IC50 [5] is reported as 4 nM and the Ki [6] is reported as 20 nM.
With `CCC[C@H](c1ccc(C(=O)NCCC(=O)O)cc1)[C@H](c1ccc(Cl)cc1)c1c[nH]c2c(F)cc(C)cc12` [MK-3577] the Activity [7] was 18.8 mg/dL, the Activity [8] was 31.7 mg/dL and the “inhibition (INH)” value [9] was less than 50%. For the same compound, the “inhibition (INH)” value [10] was less than 50%, the “inhibition (INH)” value [11] was greater than 80% and the Activity [12] was 10%. For the same compound, the Activity [13] was 17.5 mg/dL, the half-life [14] was 4 h and the Activity [15] was 7.2 mg/dL.
Work on `COc1ccc2cc(-c3cc(-c4cc(Cl)cc(Cl)c4)nn3[C@@H](C)c3ccc(C(=O)NCCC(=O)O)cc3)ccc2c1` [MK-0893] yielded a Time [16] of 45 min, a Time [17] of 59.1 min and an Activity [18] of 1.8%. The Time [19] was 103 min, the Activity [20] was 1% and the half-life [14] was 60 h. The Activity [21] was 0.6% and the Activity [22] was 1.5%.
